Assay results published in US7691842B2, “Tricyclic 6-alkylidene-penems as β-lactamase inhibitors” (Wyeth LLC, priority 2002, dated 2010).
Structures can show the parent of a compound that is named as a salt. Where two headings read alike, the source gives them in different places.

Experiments:
[1] = molecular target: class A β-lactamase TEM-1 (Escherichia coli, UniProt P62593); test: β-Lactamase inhibition, IC50 determination (nitrocefin, spectrophotometric); assay type: biochemical, E. Coli
Method: (§1) IC50 Determination for the Penem Inhibitor
(§2) β-Lactamase inhibitory activity of the penem inhibitors was determined spectrophotometrically as described by Bush et al., [Bush, K., Macalintal, C., Rasmussen, B. A., Lee, V. and Yang, Y. Antimicrobial Agents and Chemotherapy 1993, 37, 851]. Homogeneously purified class A β-lactamases TEM-1 from E. Coli and Imi-1 from Enterobacter cloacae, class B enzyme CcrA from Bacteroides fragilis and class C enzyme AmpC from Enterobacter cloaca were employed in the assay. The enzyme concentrations for TEM-1, Imi-1, CcrA and AmpC were 4.3, 7.1, 1.2 and 2.1 nM, respectively. A wide range of inhibitor concentrations were prepared in 50 mM PO4, pH 7.0 to include the possible IC50 values. The substrate used to initiate the enzyme reaction was nitrocefin at 50 μg/ml in the same buffer as the inhibitor. Initially the enzyme and inhibitor (20 μl each) were preincubated for 10 minutes at 25° C. prior to the addition of 160 μl volume of nitrocefin. Initial rates of hydrolysis were monitored for 5 minutes at 495 nm using a Molecular Devices Spectra Max 250 with kinetic protocol of SoftMax Program. Readings from the Spectra Max 250 were exported and transferred to Microsoft Excel. The percent of inhibition of each inhibitor concentration was calculated based on the control enzyme activity. The inhibitor concentration that caused a 50% reduction in the enzymatic activity (IC50) was determined graphically.

class C enzyme AmpC = class C enzyme AmpC (Enterobacter cloacae, UniProt P05364); test: biochemical; parameters: species or system Enterobacter cloaca
Method: as §1, §2

[2] = molecular target: class A β-lactamase Imi-1 (Enterobacter cloacae, UniProt Q46991); test: β-Lactamase inhibition, IC50 determination (nitrocefin, spectrophotometric); assay type: biochemical
Method: as §1, §2

class B enzyme CcrA = class B enzyme CcrA (Bacteroides fragilis, UniProt P25910); test: as above; assay type: biochemical; conditions: read-out: IC50 (nM) Class B Ccr
Method: as §1, §2

[3] = tested on: Clinical isolates that have been adapted to cause infection in mice; test: In vivo antibacterial protection (7 day survival of infected mice, ED50); parameters: species or system mice strain CD-1; conditions: Mus musculus, 168 h
Excerpt: In Vivo Antibacterial Protection
Female mice strain CD-1, approximately 18-22 grams, were received from Charles River Laboratories and quarantined 7 days prior to use. In addition, mice may be rendered neutropenic using cytoxan for particular studies.
Clinical isolates that have been adapted to cause infection in mice, are used in the experiment, including infections with strains of E. coli, K. pneumoniae, M. morganii, E. cloacae, S. marcescens, C. freundii, staphylococci, streptococci, P. aeruginosa and N. gonorrhoeae.
Mice are challenged by injecting 0.5 ml intraperitoneally or 0.05 ml intranasally of a predetermined bacterial inoculum suspended in broth, saline or hog gastric mucin (supplemented with dried bovine hemoglobin for N. gonorrhoeae). […] Antibacterial doses (dose concentration prepared by two fold serial dilutions of the antibiotic) are dissolved or suspended in 0.2% aqueous agar or methocel, phosphate buffered saline or an adjuvant are administered orally, subcutaneously or intravenously in the following manner: • a) Orally or subcutaneously: Dose volume of 0.5 ml administered ½ hr after infection. A second dose may be administered 3 hr. after infection for treatment of infections with more virulent organisms. • b) Intravenously: Dose volume of 0.2 ml, administered ½ hr. after infection. For the treatment of infections with more virulent organisms, more doses, up to 48 hr may be administered. (Intravenous dosing will not exceed 3 doses/24 hr period.) • c) Oral pretreatment: Under special circumstances, the pH of the stomach needs to be adjusted in order to increase the gastric stability of the antibiotic. For this purpose, 0.5 ml of phosphate buffered saline (pH7.8, 0.06M) (or specific approved adjuvant) is administered orally ½ hr after infection, followed 5 minutes later by 0.5 ml of antibiotic (also orally) contained in phosphate buffered saline (pH7.8, 0.06M). Animal Species
A detailed explanation as to the number of animals needed for the determination of in vivo efficacy follows: • A) Novel antibiotics are tested at 5 different dose levels with 5 mice per dose level at each of three routes of administration (oral, subcutaneous and intravenous). […] This would require 25 mice/route with 3 routes/antibiotic or 75 mice per novel compound tested. One to two novel antibiotics will be tested per experiment (75-150 mice) • B) The effectiveness of the new compound must be compared to that of a standard, or antibiotic of known effectiveness. Known or previously tested antibiotics are tested at 5 dose levels with 5 mice per dose level by a single route of administration, for a total of 25 mice/antibiotic. Usually 3-6 antibiotics will be tested per experiment. (75-150 mice). • C) Untreated controls—In each of the above tests, untreated animals are infected with 3 different concentrations of bacterial inoculum with 10 mice per concentration (30 mice total in each and every test). These untreated controls are used to determine and maintain the infection level between 10-100 LD50s as required for test to test comparison and validity. Determination of Protective Effects of Antibacterial Agents:
The protective effects of the antibacterial agent(s) are measured by the survival of the infected untreated as compared to the treated animals. For this determination, animals are observed for 7 days after treatment. A census of survivors is taken twice daily and at that time dead as well as moribund animals are removed. The 7 day survival ratio from three separate tests are pooled for estimation of median effective dose (ED50) by computerized program for probit analysis (Cleeland, R. and E. Squires. 1991. Evaluation of New Antimicrobials in Vitro and in Experimental Animal Infections. In Antibiotics in Laboratory Medicine”, 3rd. ed., edited by Victor Lorian. Willams and Wilkins Baltimore, Md. pp. 752-783). […]

E. Coli GC2203 = test: Antimicrobial susceptibility testing, microbroth dilution MIC of piperacillin + inhibitor; assay type: cell-based; conditions: piperacillin combined with constant 4 μg/ml inhibitor; Inc: 35° C. for 18 hours
Method: (§3) Antimicrobial susceptibility testing. The in vitro activities of the antibiotics were determined by the microbroth dilution method as recommended by the National Committee for Clinical Laboratory Standards (NCCLS). (NCCLS. 2000. Methods for Dilution Antimicrobial Susceptibility Tests for Bacteria That Grow Aerobically; Approved Standards: M7-A5, vol. 19. National Committee for Clinical Laboratory Standards, Villanova, Pa.). Mueller-Hinton it broth (MHBII)(BBL Cockeysville, Md.), was used for the testing procedure. Microtiter plates containing 50 μl per well of two-fold serial dilutions of piperacillin combined with a constant amount (4 μg/ml) of a B-lactamase inhibitor (final concentration) were inoculated with 50 μl of inoculum to yield the appropriate density (10^5 CFU/ml) in 100 μl. The plates were incubated for 18-22 hours at 35° C. in ambient air.

[4] = tested on: P. aeruginos GC1764 (Ampc); test: as above; assay type: cell-based; conditions: piperacillin combined with constant 4 μg/ml inhibitor; Inc: 35° C. for 18 hours
Method: as §3

E. Cloacae GC1477 (Ampc) = test: as above; assay type: cell-based; conditions: piperacillin combined with constant 4 μg/ml inhibitor; Inc: 35° C. for 18 hours
Method: as §3

E. Coli GC2847 (TEM-1) = test: as above; assay type: cell-based; conditions: piperacillin combined with constant 4 μg/ml inhibitor; Inc: 35° C. for 18 hours
Method: as §3

[5] = tested on: S. Marcescens GC1781 Sme-1 + Ampc; test: as above; assay type: cell-based; conditions: piperacillin combined with constant 4 μg/ml inhibitor; Inc: 35° C. for 18 hours
Method: as §3

E. Coli GC2920 (IRT-2) = test: as above; assay type: cell-based; conditions: piperacillin combined with constant 4 μg/ml inhibitor; Inc: 35° C. for 18 hours
Method: as §3

E. Coli GC2894 (Ampc) = test: as above; assay type: cell-based; conditions: piperacillin combined with constant 4 μg/ml inhibitor; Inc: 35° C. for 18 hours
Method: as §3

S. aureus GC2216 = test: as above; assay type: cell-based; conditions: piperacillin combined with constant 4 μg/ml inhibitor; Inc: 35° C. for 18 hours
Method: as §3

E. Coli GC2844 = test: as above; assay type: cell-based; conditions: piperacillin combined with constant 4 μg/ml inhibitor; Inc: 35° C. for 18 hours
Method: as §3

[6] = enzyme 1.2 nM, 10 min preincubation at 25° C., nitrocefin 50 μg/ml, 50 mM PO4, pH 7.0
[7] = Ratio of Piperacillin Inhibitor 4:1, read-out: ED50
[8] = enzyme 4.3 nM, 10 min preincubation at 25° C., nitrocefin 50 μg/ml, 50 mM PO4, pH 7.0, read-out: IC50 (nM) Class A TEM-1
[9] = enzyme 2.1 nM, 10 min preincubation at 25° C., nitrocefin 50 μg/ml, 50 mM PO4, pH 7.0, read-out: IC50 (nM) Class C AmpC
[10] = enzyme 7.1 nM, 10 min preincubation at 25° C., nitrocefin 50 μg/ml, 50 mM PO4, pH 7.0, read-out: IC50 (nM) Class A Imi

Sequence of class A β-lactamase Imi-1 (Q46991 entry or part of it): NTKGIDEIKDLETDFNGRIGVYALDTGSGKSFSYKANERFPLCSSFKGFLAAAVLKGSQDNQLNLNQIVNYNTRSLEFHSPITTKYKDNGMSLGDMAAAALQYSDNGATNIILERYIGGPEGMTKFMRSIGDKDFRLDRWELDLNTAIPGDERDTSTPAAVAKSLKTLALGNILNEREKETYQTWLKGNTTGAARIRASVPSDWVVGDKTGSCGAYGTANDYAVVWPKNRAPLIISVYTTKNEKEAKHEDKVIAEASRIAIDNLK
Sequence of class A β-lactamase TEM-1 (P62593 24-286 limits assumed): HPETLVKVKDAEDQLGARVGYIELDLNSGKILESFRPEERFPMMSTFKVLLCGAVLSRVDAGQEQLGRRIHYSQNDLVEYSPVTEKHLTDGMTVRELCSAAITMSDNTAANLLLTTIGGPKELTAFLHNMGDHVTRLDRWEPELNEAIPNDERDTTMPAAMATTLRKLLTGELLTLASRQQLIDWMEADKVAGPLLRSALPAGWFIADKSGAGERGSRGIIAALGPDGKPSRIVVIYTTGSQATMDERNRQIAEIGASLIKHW
Sequence of class B enzyme CcrA (P25910 19-249): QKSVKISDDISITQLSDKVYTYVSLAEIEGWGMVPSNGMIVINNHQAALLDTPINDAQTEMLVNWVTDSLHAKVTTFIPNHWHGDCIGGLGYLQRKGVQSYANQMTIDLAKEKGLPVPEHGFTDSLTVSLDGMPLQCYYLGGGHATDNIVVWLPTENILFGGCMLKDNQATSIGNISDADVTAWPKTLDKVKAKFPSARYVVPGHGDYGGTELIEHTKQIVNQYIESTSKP
Sequence of class C enzyme AmpC (P05364 21-381): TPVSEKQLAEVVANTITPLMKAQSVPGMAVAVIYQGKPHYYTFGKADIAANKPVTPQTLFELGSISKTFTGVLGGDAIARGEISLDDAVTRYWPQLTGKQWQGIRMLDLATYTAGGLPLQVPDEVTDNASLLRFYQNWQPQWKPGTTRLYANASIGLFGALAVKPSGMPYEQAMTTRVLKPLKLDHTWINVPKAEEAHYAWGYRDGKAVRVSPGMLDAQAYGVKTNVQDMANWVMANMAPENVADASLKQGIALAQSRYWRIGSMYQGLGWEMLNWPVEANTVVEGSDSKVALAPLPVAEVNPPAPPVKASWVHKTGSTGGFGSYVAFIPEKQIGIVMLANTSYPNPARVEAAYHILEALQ

SMILES	IC50 [1] [nM]	IC50 (class C enzyme AmpC) [nM]	IC50 [2] [nM]	IC50 (class B enzyme CcrA; [6]) [nM]	ED50 [3, 7] [mg/kg]	IC50 [1, 8] [nM]	IC50 (class C enzyme AmpC; [9]) [nM]	Minimal Inhibitory Concentration E. Coli GC2203 (E. Coli GC2203) [µg/mL]	Minimal Inhibitory Concentration P. aeruginos GC1764 (Ampc) [4] [µg/mL]	Minimal Inhibitory Concentration E. Cloacae GC1477 (Ampc) (E. Cloacae GC1477 (Ampc)) [µg/mL]	Minimal Inhibitory Concentration E. Coli GC2847 (TEM-1) (E. Coli GC2847 (TEM-1)) [µg/mL]	Minimal Inhibitory Concentration S. Marcescens GC1781 Sme-1 + Ampc [5] [µg/mL]	Minimal Inhibitory Concentration E. Coli GC2920 (IRT-2) (E. Coli GC2920 (IRT-2)) [µg/mL]	Minimal Inhibitory Concentration E. Coli GC2894 (Ampc) (E. Coli GC2894 (Ampc)) [µg/mL]	Minimal Inhibitory Concentration S. aureus GC2216 (S. aureus GC2216) [µg/mL]	Minimal Inhibitory Concentration E. Coli GC2844 (E. Coli GC2844) [µg/mL]	IC50 [2, 10] [nM]	IC50 (class B enzyme CcrA; pH 7) [nM]	ED50 ([3]; Ratio of Piperacillin Inhibitor not given, read-out: ED50) [mg/kg]
CCOc1nc2nc(C=C3C(=O)N4C(C(=O)O)=CSC34)cn2c2c1CCC2 (centres unmarked) [Example 10, 6-(5-ethoxy-7,8-dihydro-6H-3,4,8b-triaza-as-indacen-2-ylmethylene)-7-oxo-4-thia-1-aza-bicyclo[3.2.0]hept-2-ene-2-carboxylic acid]	48	5.8	35	140	55.6	–	–	–	–	–	–	–	–	–	–	–	–	–	–
O=C([O-])C1=CS[C@@H]2C(=Cc3cc4n(n3)Cc3ccccc3OC4)C(=O)N12.[Na+] [Example 11, (5R,6E&Z)-7-oxo-6-(4H,10H-pyrazolo[5,1-c][1,4]-benzoxazepin-2-ylmethylene)-4-thia-1-azabicyclo[3.2.0]hept-2-ene-2-carboxylic acid, sodium salt]	–	–	–	62	–	1.4	3.6	1	16	32	8	1	1	4	<0.06	1	78	–	–
O=C(O)C1=CS[C@@H]2/C(=C\c3cn4c(n3)-c3ccccc3C4)C(=O)N12 [Example 12, (5R), (6Z)-6-(5H-Imidazo[2,1-a]isoindol-2-ylmethylene)-7-oxo-4-thia-1-aza-bicyclo[3.2.0]hept-2-ene-2-carboxylic acid sodium salt]	2.6	28	6.4	42	50	–	–	–	–	–	–	–	–	–	–	–	–	–	–
O=C(O)C1=CS[C@@H]2/C(=C\c3cn4c(n3)sc3cc(F)ccc34)C(=O)N12 [Example 14]	8.1	2.4	270	–	–	–	–	–	–	–	–	–	–	–	–	–	–	370	> 64
O=C(O)C1=CS[C@@H]2/C(=C\c3ccc4c(c3)sc3nccn34)C(=O)N12 [Example 16, (5R),(6Z)-6-(imidazo[2,1-b]bebzothiazol-7-ylmethylene)-7-oxo-4-thia-1-azabicyclo[3.2.0]hept-2-ene-2-carboxylic acid]	–	–	–	130	–	4.5	9.5	4	32	>64	64	1	2	32	0.05	2	70	–	–
